What all share (assay type): physicochemical
A short description of data set [1]: Test for stability: percentage of compound remaining after storage at 60°C, measured by liquid chromatography. As to conditions: for remaining at 480 h: buffer with hco-60, Table 5, 0.05 g compound, 1.0 g HCO-60, pH buffer, 60°C, 20 days, read-out: Stability (as percentage of compound remained after stored at 60°C for 20 days). On the procedure:
The difference in the stability of Compound (III) was tested, depending on the solubilizer added thereto. The stability was represented by the percentage (%) of the amount of Compound (III) remained after storage. Precisely, each sample formulation shown in Table 2 below was put in a glass tube with a screw cap and stored for 10 days and 20 days both at 60°C, whereupon the percentage of the amount of the compound remained after the storage was measured by liquid chromatography. From the value thus measured, the stability of the compound was evaluated.
Next, to examine the influence of the concentration of the solubilizer on the stability of Compound (III), experiments were carried out where the concentration of the nonionic surfactant to be added was stepwise increased while the concentration of Compound (III) was kept constant. Precisely, each sample formulation shown in Table 3 below was stored for 10 days and 20 days both at 60°C, whereupon the percentage (%) of the amount of Compound (III) remained after the storage was measured by liquid chromatography. On the basis of the thus-measured percentage, the stability of the compound was evaluated.

A short description of data set [2]: Test for solubility: dissolution of the compound observed with the naked eye. Particulars: Table 5; 0.05 g compound, 1.0 g HCO-60, pH buffer. As for the experimental part:
To test the solubility of the above-mentioned compound, various experiments were carried out under different conditions in the presence or absence of a nonionic surfactant.
Formulation No. 1 was prepared by heating and dissolving 0.05 g of Compound (III) and 0.5 g of polyoxyethylene-hardened castor oil (HCO-60) in a beaker at about 60°C followed by gradually adding thereto lactic acid/sodium lactate buffer (pH 5.0) as the pH buffer while stirring to dissolve them.

Data set [3] in a line: Solubility of the compound in solvents (description of the substance).
The nature of data set [4]: Mean particle size of formed micelles by light-scattering photometry. More on the design: key: - : No micelle detected. As to conditions: Compound (III) 0.005 W/V %. The source says:
It was confirmed that, when the concentration of Compound (III) was 0.005 W/V % and when the concentration of HCO-60 was 0.10 W/V % or more, micelles having a mean particle size of from 16 to 20 nm were formed.

The values below come from EP0639376A1, “Liquid composition containing amide derivative” (TERUMO KABUSHIKI KAISHA, priority 1993, dated 1995).

Turning to `CCOC(=O)Oc1ccc(/C=C/C(=O)NCCN2CCC(OC(c3ccccc3)c3ccccc3)CC2)cc1OC(=O)OCC` [(VI)], in data set [1], the remaining at 480 h was found to be 90.9%. The Solubility result in data set [2] is on record as “Dissolved clear”.
For the compound `CCOC(=O)Oc1ccc(/C=C/C=C/C(=O)NCCN2CCC(OC(c3ccccc3)c3ccccc3)CC2)cc1OC(=O)OCC` [(VII)], the remaining at 480 h in data set [1] was 92.6%. For the same compound, in data set [2], the Solubility result is “Dissolved clear”.
In the case of `CCOC(=O)Oc1ccc(/C=C/C(=O)NCCN2CCC(OC(c3ccccc3)c3ccccc3)CC2)cc1OC` [Compound (IV)], the remaining at 480 h in data set [1] was 91.2%. Also, in data set [2], the Solubility result is “Dissolved clear”.
With `CCOC(=O)Oc1ccc(/C=C/C=C/C(=O)NCCN2CCC(OC(c3ccccc3)c3ccccc3)CC2)cc1OC` [Compound (III), 1-[{5'-(3''-methoxy-4''-ethoxycarbonyloxyphenyl)-2',4'-pentadienoyl}aminoethyl]-4-diphenylmethoxypiperidine], the “stabilization of Compound (III)” value in data set [1] (result in words, from Table 3, HCO-60 0.10 W/V % or more) is “almost satisfactorily stabilized”. Further, in data set [3], the solubility in acetone result was “easily soluble”. Also, in data set [3], the solubility in acetonitrile result is on record as “soluble in acetonitrile to some degree”. For the same compound, the solubility in dichloroethane entry in data set [3] was “easily soluble”. Besides, the solubility in ethanol entry in data set [3] is “hardly soluble”. For the same compound, the solubility in water result in data set [3] is listed as “almost insoluble”. Besides, the “Mean Particle Size” value in data set [4] (HCO-60 0.05 W/V %) was “-”; in data set [4] (HCO-60 0.10 W/V %), 16.2 +/- 3.7 nm; in data set [4] (HCO-60 0.25 W/V %) it was 19.6 +/- 4.3 nm; in data set [4] (HCO-60 0.50 W/V %), 18.3 +/- 4.5 nm; in data set [4] (HCO-60 1.00 W/V %), 18.8 +/- 4.2 nm.
With `CCOC(=O)Oc1ccc(/C=C/C=C/C(=O)NCCCN2CCN(C(c3ccccc3)c3ccccc3)CC2)cc1OC` [Compound (V)], the remaining at 480 h in data set [1] was determined as 92.1%. Also, the Solubility result in data set [2] is listed as “Dissolved clear”.
